Columns and labels:
Assay in all cases: relative viability (nuclei count vs DMSO), 5 days (fraction); higher = more cells survive
[1] = test system: A-427
Procedure, shortened: (§1)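 Relative viability was taken as the ratio of nuclei in treated wells to nuclei in vehicle wells. Lung cancer cell lines in 1536-well plates received compounds by pin tool one day after seeding, either one drug alone or a fixed anchor-drug dose plus five library-drug doses (not always all listed) in √10 steps. Nuclei were counted on 4× images after 5 days of treatment, and values are medians of duplicate plates.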

[2] = test system: EKVX
Procedure, shortened: as §1

[3] = test system: NCI-H596
Procedure, shortened: as §1

[4] = test system: HARA
Procedure, shortened: as §1

[5] = test system: HCC-15
Procedure, shortened: as §1

[6] = test system: COR-L23
Procedure, shortened: as §1

[7] = test system: 201T
Procedure, shortened: as §1

[8] = test system: NCI-H1975
Procedure, shortened: as §1

[9] = test system: NCI-H358
Procedure, shortened: as §1

[10] = test system: SW 900
Procedure, shortened: as §1

[11] = test system: COR-L 105
Procedure, shortened: as §1

[12] = test system: NCI-H650
Procedure, shortened: as §1

[13] = test system: HCC-44
Procedure, shortened: as §1

[14] = test system: NCI-H1666
Procedure, shortened: as §1

[15] = test system: NCI-H1437
Procedure, shortened: as §1

[16] = test system: HCC-827
Procedure, shortened: as §1

[17] = test system: SK-MES-1
Procedure, shortened: as §1

[18] = test system: NCI-H23
Procedure, shortened: as §1

[19] = test system: NCI-H1792
Procedure, shortened: as §1

[20] = test system: NCI-H838
Procedure, shortened: as §1

[21] = test system: BEN
Procedure, shortened: as §1

[22] = test system: NCI-H441
Procedure, shortened: as §1

[23] = test system: LK-2
Procedure, shortened: as §1

C=C1C(=O)O[C@@H](CCCCCCCC)[C@@H]1C(=O)O [C-75] + COc1cccc2cc(-c3nc([C@H]4CC[C@H](C(=O)O)CC4)n4ncnc(N)c34)[nH]c12 [OSI-027] (partner 0.5 µM)
relative viability ([1]; first compound 0.08 µM): 0.516 | relative viability ([1]; first compound 0.253 µM): 0.51 | relative viability ([1]; first compound 0.8 µM): 0.488 | relative viability ([1]; first compound 2.53 µM): 0.439 | relative viability ([1]; first compound 8 µM): 0.39 | relative viability ([2]; first compound 0.08 µM): 0.699 | relative viability ([2]; first compound 0.253 µM): 0.979 | relative viability ([2]; first compound 0.8 µM): 0.651 | relative viability ([2]; first compound 8 µM): 0.68 | relative viability ([3]; first compound 0.08 µM): 0.887 | relative viability ([3]; first compound 0.253 µM): 0.798 | relative viability ([3]; first compound 0.8 µM): 0.72 | relative viability ([3]; first compound 2.53 µM): 0.622 | relative viability ([3]; first compound 8 µM): 0.678 | relative viability ([4]; first compound 0.08 µM): 0.634 | relative viability ([4]; first compound 0.253 µM): 0.587 | relative viability ([4]; first compound 0.8 µM): 0.513 | relative viability ([4]; first compound 2.53 µM): 0.31 | relative viability ([4]; first compound 8 µM): 0.441 | relative viability ([5]; first compound 0.08 µM): 0.628 | relative viability ([5]; first compound 0.253 µM): 0.707 | relative viability ([5]; first compound 0.8 µM): 0.655 | relative viability ([5]; first compound 2.53 µM): 0.502 | relative viability ([5]; first compound 8 µM): 0.636 | relative viability ([6]; first compound 0.08 µM): 0.74 | relative viability ([6]; first compound 0.253 µM): 0.886 | relative viability ([6]; first compound 0.8 µM): 0.767 | relative viability ([6]; first compound 2.53 µM): 0.676 | relative viability ([6]; first compound 8 µM): 0.701 | relative viability ([7]; first compound 0.08 µM): 0.734 | relative viability ([7]; first compound 0.253 µM): 0.866 | relative viability ([7]; first compound 0.8 µM): 0.698 | relative viability ([7]; first compound 8 µM): 0.734 | relative viability ([8]; first compound 0.08 µM): 0.842 | relative viability ([8]; first compound 0.253 µM): 0.672 | relative viability ([8]; first compound 0.8 µM): 0.679 | relative viability ([8]; first compound 2.53 µM): 0.436 | relative viability ([8]; first compound 8 µM): 0.717 | relative viability ([9]; first compound 0.08 µM): 0.714 | relative viability ([9]; first compound 0.253 µM): 0.871 | relative viability ([9]; first compound 0.8 µM): 0.691 | relative viability ([9]; first compound 2.53 µM): 0.383 | relative viability ([9]; first compound 8 µM): 0.624 | relative viability ([10]; first compound 0.08 µM): 0.555 | relative viability ([10]; first compound 0.253 µM): 0.842 | relative viability ([10]; first compound 0.8 µM): 0.441 | relative viability ([10]; first compound 2.53 µM): 0.509 | relative viability ([10]; first compound 8 µM): 0.45 | relative viability ([11]; first compound 0.08 µM): 0.709 | relative viability ([11]; first compound 0.253 µM): 0.757 | relative viability ([11]; first compound 0.8 µM): 0.648 | relative viability ([11]; first compound 2.53 µM): 0.515 | relative viability ([11]; first compound 8 µM): 0.696 | relative viability ([12]; first compound 0.08 µM): 0.611 | relative viability ([12]; first compound 0.253 µM): 0.401 | relative viability ([12]; first compound 0.8 µM): 0.494 | relative viability ([12]; first compound 2.53 µM): 0.448 | relative viability ([12]; first compound 8 µM): 0.524 | relative viability ([13]; first compound 0.08 µM): 0.675 | relative viability ([13]; first compound 0.253 µM): 0.428 | relative viability ([13]; first compound 0.8 µM): 0.463 | relative viability ([13]; first compound 2.53 µM): 0.353 | relative viability ([13]; first compound 8 µM): 0.404 | relative viability ([14]; first compound 0.08 µM): 0.798 | relative viability ([14]; first compound 0.253 µM): 0.97 | relative viability ([14]; first compound 0.8 µM): 0.885 | relative viability ([14]; first compound 2.53 µM): 0.726 | relative viability ([14]; first compound 8 µM): 0.786 | relative viability ([15]; first compound 0.08 µM): 0.842 | relative viability ([15]; first compound 0.253 µM): 0.871 | relative viability ([15]; first compound 0.8 µM): 0.867 | relative viability ([15]; first compound 2.53 µM): 0.57 | relative viability ([15]; first compound 8 µM): 0.914 | relative viability ([16]; first compound 0.08 µM): 0.757 | relative viability ([16]; first compound 0.253 µM): 0.826 | relative viability ([16]; first compound 0.8 µM): 0.751 | relative viability ([16]; first compound 2.53 µM): 0.597 | relative viability ([16]; first compound 8 µM): 0.758 | relative viability ([17]; first compound 0.08 µM): 0.738 | relative viability ([17]; first compound 0.253 µM): 0.666 | relative viability ([17]; first compound 0.8 µM): 0.568 | relative viability ([17]; first compound 2.53 µM): 0.469 | relative viability ([17]; first compound 8 µM): 0.549 | relative viability ([18]; first compound 0.08 µM): 0.742 | relative viability ([18]; first compound 0.253 µM): 0.698 | relative viability ([18]; first compound 0.8 µM): 0.575 | relative viability ([18]; first compound 2.53 µM): 0.375 | relative viability ([18]; first compound 8 µM): 0.448 | relative viability ([19]; first compound 0.08 µM): 0.694 | relative viability ([19]; first compound 0.253 µM): 0.695 | relative viability ([19]; first compound 0.8 µM): 0.636 | relative viability ([19]; first compound 2.53 µM): 0.419 | relative viability ([19]; first compound 8 µM): 0.712 | relative viability ([20]; first compound 0.08 µM): 0.442 | relative viability ([20]; first compound 0.8 µM): 0.37 | relative viability ([20]; first compound 2.53 µM): 0.36 | relative viability ([20]; first compound 8 µM): 0.404 | relative viability ([21]; first compound 0.08 µM): 0.347 | relative viability ([21]; first compound 0.253 µM): 0.293 | relative viability ([21]; first compound 0.8 µM): 0.32 | relative viability ([21]; first compound 8 µM): 0.288 | relative viability ([22]; first compound 0.08 µM): 0.512 | relative viability ([22]; first compound 0.253 µM): 0.713 | relative viability ([22]; first compound 0.8 µM): 0.678 | relative viability ([22]; first compound 2.53 µM): 0.36 | relative viability ([22]; first compound 8 µM): 0.548 | relative viability ([23]; first compound 0.08 µM): 0.209 | relative viability ([23]; first compound 0.253 µM): 0.212 | relative viability ([23]; first compound 0.8 µM): 0.222 | relative viability ([23]; first compound 2.53 µM): 0.16 | relative viability ([23]; first compound 8 µM): 0.145
